According to patent publication US20240381872A1, “SUBSTITUTED 2,3-DIHYDRO[1,3]THIAZOLO[4,5-B]PYRIDINES, SALTS THEREOF AND THEIR USE AS HERBICIDALLY ACTIVE SUBSTANCES” (BAYER AKTIENGESELLSCHAFT, priority 2021, published 2024):

Legend:
Format in all cases: in vivo
[1] = system: Polygonum convolvulus (POLCO); assay: Herbicidal post-emergence action, section E (Table E7); settings: visual assessment ca. 3 weeks after spraying; for pest or weed control at 80 g/ha: Fallopia convolvulus, 504 h, read-out: post-emergence activity against POLCO in %
Description: (§1) Seeds of mono- and dicotyledonous weed plants and crop plants were sown, in plastic or organic planting pots, in sandy loam, covered with soil and grown in a greenhouse under controlled growth conditions. 2 to 3 weeks after sowing, the test plants were sprayed in the single-leaf stage. The compounds according to the invention, formulated in form of wettable powders (WP) or as emulsifiable concentrates (EC), were sprayed onto the green plant parts as aqueous suspension or emulsion, with the addition of 0.5% of an additive, at an application rate of 600 l of water/ha (converted). The test plants were placed in the greenhouse for ca. 3 weeks under optimum growth conditions, and then the effect of the preparations was assessed visually in comparison with untreated controls (herbicidal effect in percent (%): 100% effect=plants have died off, 0% effect=as control plants).

Zea mays (ZEAMX) = assay: Pre-emergence effects on crop plants, section D (Table D1); settings: visual grading after ca. 3 weeks
Method in brief: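 Pre-emergence soil-surface spray, 320 g/ha or below, 600 l water/ha + 0.5% additive; WP/EC formulations; sandy loam; greenhouse; visual % damage vs untreated at ~3 wk.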

Setaria viridis (SETVI) = assay: Herbicidal post-emergence action, section E (Table E8); settings: application rate 320 g/ha, visual assessment ca. 3 weeks after spraying; for pest or weed control at 320 g/ha: Setaria viridis, 504 h, read-out: post-emergence activity against SETVI in %
Description: as §1

Brassica napus (BRSNW) = assay: Post-emergence effects on crop plants, section F (Table F5); settings: for crop plant damage (phytotoxicity) in % at 80 g/ha: Brassica napus, 504 h, application rate 80 g/ha, read-out: post-emergence activity against BRSNW in %
Method in brief: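 Percent damage was rated by eye roughly 3 weeks after treatment against untreated plants, where 0% = as control and 100% = died off. Spraying used WP or EC formulations plus 0.5% additive at 600 l water/ha, with rates of 320 g/ha or less. Plants were at the single-leaf stage, sown 2-3 weeks earlier in sandy loam under greenhouse conditions.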

Kochia scoparia (KCHSC) [2] = assay: Herbicidal post-emergence action, section B (Table B4); settings: visual rating about 3 weeks after treatment vs untreated controls
Method in brief: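 Post-emergence greenhouse test. One-leaf stage; WP or EC plus 0.5% additive; 600 liters per hectare water volume; visual % rating at ~3 weeks relative to untreated plants.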

[3] = system: Alopecurus myosuroides (ALOMY); assay: Herbicidal post-emergence action, section B (Table B2); settings: application rate 1280 g/ha; rated visually about 3 weeks after treatment vs untreated controls; 100% = plants have died, 0% = like control plants
Protocol: (§2) Seeds of mono- and dicotyledonous weed plants were placed in plastic pots in sandy loam soil (doubly sown with in each case one species of mono- or dicotyledonous weed plants per pot), covered with soil and cultivated in a greenhouse under controlled growth conditions. 2 to 3 weeks after sowing, the test plants were treated at the one-leaf stage. The compounds of the invention, formulated in the form of wettable powders (WP) or as emulsion concentrates (EC), were applied onto the green parts of the plants as aqueous suspension or emulsion with addition of 0.5% additive at a water application rate of 600 liters per hectare (converted). After the test plants had been kept in the greenhouse under optimum growth conditions for about 3 weeks, the activity of the preparations was rated visually in comparison to untreated controls. For example, 100% activity=the plants have died, 0% activity=like control plants.

Kochia scoparia (KCHSC) [4] = assay: Herbicidal pre-emergence action, section C (Table C13); settings: application rate 320 g/ha, visual grading after ca. 3 weeks; for pest or weed control at 320 g/ha: Bassia scoparia, pre-emergence, 504 h, read-out: pre-emergence activity against KCHSC in %
Description: Seeds of mono- and dicotyledonous weed plants and crop plants were sown, in plastic or organic planting pots, in sandy loam and covered with soil. The compounds according to the invention, formulated in the form of wettable powders (WP) or as emulsifiable concentrates (EC), were applied to the surface of the covering soil as aqueous suspension or emulsion, with the addition of 0.5% of an additive, at an application rate of 600 l of water/ha (converted). Following treatment, the pots were placed in a greenhouse and kept under optimum growth conditions for the test plants. The visual grading of the damage to the test plants was carried out after ca. 3 weeks in comparison to untreated controls (herbicidal effect in percent (%): 100% effect=plants have died off, 0% effect=as control plants).

[5] = system: Matricaria inodora (MATIN); assay: Herbicidal post-emergence action, section B (Table B6); settings: visual rating about 3 weeks after treatment vs untreated controls; for post-emergence activity against MATIN in %: application rate 1280 g/ha
Protocol: as §2

Kochia scoparia (KCHSC) [6] = assay: Herbicidal post-emergence action, section E (Table E11); settings: visual assessment ca. 3 weeks after spraying; for pest or weed control at 80 g/ha: Bassia scoparia, 504 h, read-out: post-emergence activity against KCHSC in %
Description: as §1

[7] = system: Abutilon theophrasti (ABUTH); assay: Herbicidal post-emergence action, section E (Table E1); settings: assessed visually after ca. 3 weeks
Description: as §1

[8] = Bassia scoparia, post-emergence, 504 h, application rate 1280 g/ha, read-out: post-emergence activity against KCHSC in %

Cc1cc2c(nc1-c1ccccc1Cl)NCS2 [Example I-049, 5-(2-chlorophenyl)-6-methyl-2,3-dihydro[1,3]thiazolo[4,5-b]pyridine]
pest or weed control at 80 g/ha ([1]; application rate 80 g/ha): 80% | pre-emergence activity against ZEAMX in % (crop plant damage) (Zea mays (ZEAMX); application rate 80 g/ha): 10% | pest or weed control at 320 g/ha (Setaria viridis (SETVI)): 80%

CC(=O)N1CSc2cc(Br)c(-c3ccccc3Cl)nc21 [Example I-055, 1-[6-bromo-5-(2-chlorophenyl)[1,3]thiazolo[4,5-b]pyridin-3(2H)-yl]ethanone]
crop plant damage (phytotoxicity) in % at 80 g/ha (Brassica napus (BRSNW)): 10% | pre-emergence activity against ZEAMX in % (crop plant damage) (Zea mays (ZEAMX); application rate 320 g/ha): 0% | pest or weed control at 1280 g/ha (Kochia scoparia (KCHSC) [2]; [8]): 90%

Cc1cc2c(nc1-c1cccc(C)c1F)NCS2 [Example I-113]
post-emergence activity against BRSNW in % (Brassica napus (BRSNW); crop plant damage, application rate 320 g/ha): 20% | post-emergence activity against ALOMY [3]: 90% | pre-emergence activity against ZEAMX in % (crop plant damage) (Zea mays (ZEAMX); application rate 320 g/ha): 0% | pre-emergence activity against KCHSC in % (Kochia scoparia (KCHSC) [4]): 80% | post-emergence activity against KCHSC in % (Kochia scoparia (KCHSC) [2]; application rate 320 g/ha): 90% | post-emergence activity against MATIN in % [5]: 90%

CCOCCS(=O)(=O)N1C[S+]([O-])c2cc(C)c(-c3ccccc3F)nc21 (centres unmarked) [Example I-127]
pest or weed control at 80 g/ha ([1]; application rate 80 g/ha): 90% | pre-emergence activity against ZEAMX in % (crop plant damage) (Zea mays (ZEAMX); application rate 80 g/ha): 20% | pest or weed control at 320 g/ha (Setaria viridis (SETVI)): 80% | pest or weed control at 320 g/ha (Kochia scoparia (KCHSC) [4]): 90% | pest or weed control at 320 g/ha (Kochia scoparia (KCHSC) [2]; Bassia scoparia, post-emergence, 504 h, application rate 320 g/ha, read-out: post-emergence activity against KCHSC in %): 90% | pest or weed control at 80 g/ha (Kochia scoparia (KCHSC) [6]; application rate 80 g/ha): 90% | pest or weed control at 320 g/ha ([5]; Tripleurospermum inodorum, post-emergence, 504 h, application rate 320 g/ha, read-out: post-emergence activity against MATIN in %): 90% | pest or weed control at 80 g/ha ([7]; Abutilon theophrasti, post-emergence, 504 h, application rate 80 g/ha, read-out: post-emergence activity against ABUTH in %): 80%

COCC1(C(=O)N2CSc3cc(C)c(-c4ccccc4F)nc32)CC(Cl)=NO1 (centres unmarked) [Example I-128]
post-emergence activity against POLCO in % ([1]; application rate 80 g/ha): 90% | pre-emergence activity against ZEAMX in % (crop plant damage) (Zea mays (ZEAMX); application rate 80 g/ha): 0% | post-emergence activity against SETVI in % (Setaria viridis (SETVI)): 80% | pre-emergence activity against KCHSC in % (Kochia scoparia (KCHSC) [4]): 90% | post-emergence activity against KCHSC in % (Kochia scoparia (KCHSC) [2]; application rate 320 g/ha): 90% | post-emergence activity against KCHSC in % (Kochia scoparia (KCHSC) [6]; application rate 80 g/ha): 90% | post-emergence activity against MATIN in % [5]: 90% | post-emergence activity against ABUTH in % ([7]; application rate 80 g/ha): 80%

Cc1ccccc1-c1nc2c(cc1C)SCN2C(=O)C1(C)CC(Cl)=NO1 (centres unmarked) [Example I-137]
post-emergence activity against POLCO in % ([1]; application rate 320 g/ha): 80% | pre-emergence activity against ZEAMX in % (crop plant damage) (Zea mays (ZEAMX); application rate 80 g/ha): 20% | pre-emergence activity against KCHSC in % (Kochia scoparia (KCHSC) [4]): 100% | post-emergence activity against KCHSC in % (Kochia scoparia (KCHSC) [2]; application rate 320 g/ha): 90% | post-emergence activity against KCHSC in % (Kochia scoparia (KCHSC) [6]; application rate 80 g/ha): 90% | post-emergence activity against MATIN in % [5]: 90% | post-emergence activity against ABUTH in % ([7]; application rate 320 g/ha): 80%

CC1(C(=O)N2CSc3cc(Br)c(-c4ccccc4)nc32)CC(Cl)=NO1 (centres unmarked) [Example I-139]
post-emergence activity against POLCO in % ([1]; application rate 320 g/ha): 90% | pre-emergence activity against ZEAMX in % (crop plant damage) (Zea mays (ZEAMX); application rate 320 g/ha): 20% | pre-emergence activity against KCHSC in % (Kochia scoparia (KCHSC) [4]): 90% | post-emergence activity against KCHSC in % (Kochia scoparia (KCHSC) [2]; application rate 1280 g/ha): 90% | post-emergence activity against KCHSC in % (Kochia scoparia (KCHSC) [6]; application rate 320 g/ha): 90% | post-emergence activity against ABUTH in % ([7]; application rate 320 g/ha): 90%

CC1(C(=O)N2CSc3cc(Br)c(-c4ccccc4Cl)nc32)CC(Cl)=NO1 (centres unmarked) [Example I-141, [6-bromo-5-(2-chlorophenyl)[1,3]thiazolo[4,5-b]pyridin-3(2H)-yl](3-chloro-5-methyl-4,5-dihydro-1,2-oxazol-5-yl)methanone]
crop plant damage (phytotoxicity) in % at 80 g/ha (Brassica napus (BRSNW)): 20% | pre-emergence activity against ZEAMX in % (crop plant damage) (Zea mays (ZEAMX); application rate 80 g/ha): 0% | pest or weed control at 320 g/ha (Kochia scoparia (KCHSC) [4]): 90% | pest or weed control at 1280 g/ha (Kochia scoparia (KCHSC) [2]; [8]): 90% | pest or weed control at 80 g/ha (Kochia scoparia (KCHSC) [6]; application rate 80 g/ha): 80% | pest or weed control at 320 g/ha ([7]; Abutilon theophrasti, post-emergence, 504 h, application rate 320 g/ha, read-out: post-emergence activity against ABUTH in %): 80%
